Like-named read-outs stand apart in the source and are kept apart here.
Experiments:
[1] = system: Key Broadleaf Weed and Crop Species; assay: Post-Emergent Test II: postemergent herbicidal activity, visual rating after 14 d (Table 7); format: in vivo; conditions: post-emergence, 336 h; for pest or weed control at 35 g/ha: 35 g ai/ha; for pest or weed control at 70 g/ha: 70 g ai/ha; for pest or weed control at 140 g/ha: 140 g ai/ha
In short: (§1)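 Scoring is visual, 0-100, at 14 d after application, comparing treated with untreated plants. Application: overhead track spray at 187 L/ha onto seedlings at 1-2 true leaves, in surfactant/crop-oil carrier.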

[2] = system: Key Grass and Sedge Weeds as well as Grass Crops; assay: Post-Emergent Test II: postemergent herbicidal activity, visual rating after 14 d (Table 8); format: in vivo; conditions: post-emergence, 336 h; for pest or weed control at 35 g/ha: 35 g ai/ha; for pest or weed control at 70 g/ha: 70 g ai/ha; for pest or weed control at 140 g/ha: 140 g ai/ha
In short: as §1

[3] = lambsquarters (Chenopodium album), read-out: Visual Growth Reduction (%) 14 Days After Application CHEAL
[4] = oilseed rape, canola (Brassica napus), read-out: Visual Growth Reduction (%) 14 Days After Application BRSNN
[5] = redroot pigweed (Amaranthus retroflexus), read-out: Visual Growth Reduction (%) 14 Days After Application AMARE
[6] = sunflower (Helianthus annuus), read-out: Visual Growth Reduction (%) 14 Days After Application HELAN
[7] = velvetleaf (Abutilon theophrasti), read-out: Visual Growth Reduction (%) 14 Days After Application ABUTH
[8] = wild poinsettia (Euphorbia heterophylla), read-out: Visual Growth Reduction (%) 14 Days After Application EPHHL
[9] = barnyardgrass (Echinochloa crus-galli), read-out: Visual Growth Reduction (%) 14 Days After Application ECHCG
[10] = giant foxtail (Setaria faberi), read-out: Visual Growth Reduction (%) 14 Days After Application SETFA
[11] = maize, corn (Zea mays), read-out: Visual Growth Reduction (%) 14 Days After Application ZEAMX
[12] = rice (Oryza sativa), read-out: Visual Growth Reduction (%) 14 Days After Application ORYSA
[13] = wheat, spring (Triticum aestivum), read-out: Visual Growth Reduction (%) 14 Days After Application TRZAS
[14] = yellow nutsedge (Cyperus esculentus), read-out: Visual Growth Reduction (%) 14 Days After Application CYPES

Row | Compound | pest or weed control at 35 g/ha [1, 3] | pest or weed control at 70 g/ha [1, 3] | pest or weed control at 140 g/ha [1, 3] | pest or weed control at 35 g/ha [1, 4] | pest or weed control at 70 g/ha [1, 4] | pest or weed control at 140 g/ha [1, 4] | pest or weed control at 35 g/ha [1, 5] | pest or weed control at 70 g/ha [1, 5] | pest or weed control at 140 g/ha [1, 5] | pest or weed control at 35 g/ha [1, 6] | pest or weed control at 70 g/ha [1, 6] | pest or weed control at 140 g/ha [1, 6] | pest or weed control at 35 g/ha [1, 7] | pest or weed control at 70 g/ha [1, 7] | pest or weed control at 140 g/ha [1, 7] | pest or weed control at 35 g/ha [1, 8] | pest or weed control at 70 g/ha [1, 8] | pest or weed control at 140 g/ha [1, 8] | pest or weed control at 35 g/ha [2, 9] | pest or weed control at 70 g/ha [2, 9] | further results
1 | Nc1c(F)c(-c2ccc(F)c3c2OC(F)(F)O3)nc(C(=O)O)c1Cl [Compound 77] | 85 to 94% | 95 to 100% | 95 to 100% | 75 to 84% | 85 to 94% | 95 to 100% | 95 to 100% | 95 to 100% | 95 to 100% | 85 to 94% | 95 to 100% | 95 to 100% | 30 to 44% | 60 to 74% | 75 to 84% | 0 to 29% | 0 to 29% | 0 to 29% | 0 to 29% | 0 to 29% | pest or weed control at 140 g/ha [2, 9]: 0 to 29%; pest or weed control at 35 g/ha [2, 10]: 0 to 29%; pest or weed control at 70 g/ha [2, 10]: 0 to 29%; pest or weed control at 140 g/ha [2, 10]: 0 to 29%; pest or weed control at 35 g/ha [2, 11]: 0 to 29%; pest or weed control at 70 g/ha [2, 11]: 0 to 29%; pest or weed control at 140 g/ha [2, 11]: 0 to 29%; pest or weed control at 35 g/ha [2, 12]: 0 to 29%; pest or weed control at 70 g/ha [2, 12]: 0 to 29%; pest or weed control at 140 g/ha [2, 12]: 0 to 29%; pest or weed control at 35 g/ha [2, 13]: 45 to 59%; pest or weed control at 70 g/ha [2, 13]: 60 to 74%; pest or weed control at 140 g/ha [2, 13]: 60 to 74%; pest or weed control at 35 g/ha [2, 14]: 0 to 29%; pest or weed control at 70 g/ha [2, 14]: 0 to 29%; pest or weed control at 140 g/ha [2, 14]: 0 to 29%
2 | COC(=O)c1nc(-c2ccc(Br)c3c2OC(F)(F)O3)c(F)c(N)c1Cl [Compound 78, Methyl 4-amino-6-(7-bromo-2,2-difluorobenzo[d][1,3]dioxol-4-yl)-3-chloro-5-fluoropicolinate] | 95 to 100% | 95 to 100% | 95 to 100% | 60 to 74% | 75 to 84% | 75 to 84% | 95 to 100% | 95 to 100% | 95 to 100% | 95 to 100% | 95 to 100% | 95 to 100% | 85 to 94% | 85 to 94% | 85 to 94% | 0 to 29% | 0 to 29% | 0 to 29% | 0 to 29% | 0 to 29% | pest or weed control at 140 g/ha [2, 9]: 0 to 29%; pest or weed control at 35 g/ha [2, 10]: 0 to 29%; pest or weed control at 70 g/ha [2, 10]: 0 to 29%; pest or weed control at 140 g/ha [2, 10]: 0 to 29%; pest or weed control at 35 g/ha [2, 11]: 60 to 74%; pest or weed control at 70 g/ha [2, 11]: 60 to 74%; pest or weed control at 140 g/ha [2, 11]: 60 to 74%; pest or weed control at 35 g/ha [2, 12]: 0 to 29%; pest or weed control at 70 g/ha [2, 12]: 0 to 29%; pest or weed control at 140 g/ha [2, 12]: 0 to 29%; pest or weed control at 35 g/ha [2, 13]: 0 to 29%; pest or weed control at 70 g/ha [2, 13]: 0 to 29%; pest or weed control at 140 g/ha [2, 13]: 0 to 29%; pest or weed control at 35 g/ha [2, 14]: 0 to 29%; pest or weed control at 70 g/ha [2, 14]: 0 to 29%; pest or weed control at 140 g/ha [2, 14]: 0 to 29%
3 | COC(=O)c1nc(-c2ccc(I)c3c2OC(F)(F)O3)c(F)c(N)c1Cl [Compound 79, Methyl 4-amino-3-chloro-6-(2,2-difluoro-7-iodobenzo-[d][1,3]dioxol-4-yl)-5-fluoropicolinate] | 85 to 94% | 85 to 94% | 85 to 94% | 60 to 74% | 60 to 74% | 60 to 74% | 95 to 100% | 95 to 100% | 95 to 100% | 85 to 94% | 85 to 94% | 85 to 94% | 60 to 74% | 75 to 84% | 75 to 84% | 0 to 29% | 0 to 29% | 0 to 29% | 0 to 29% | 0 to 29% | pest or weed control at 140 g/ha [2, 9]: 0 to 29%; pest or weed control at 35 g/ha [2, 10]: 0 to 29%; pest or weed control at 70 g/ha [2, 10]: 0 to 29%; pest or weed control at 140 g/ha [2, 10]: 0 to 29%; pest or weed control at 35 g/ha [2, 11]: 0 to 29%; pest or weed control at 70 g/ha [2, 11]: 0 to 29%; pest or weed control at 140 g/ha [2, 11]: 0 to 29%; pest or weed control at 35 g/ha [2, 12]: 0 to 29%; pest or weed control at 70 g/ha [2, 12]: 0 to 29%; pest or weed control at 140 g/ha [2, 12]: 0 to 29%; pest or weed control at 35 g/ha [2, 13]: 0 to 29%; pest or weed control at 70 g/ha [2, 13]: 0 to 29%; pest or weed control at 140 g/ha [2, 13]: 0 to 29%; pest or weed control at 35 g/ha [2, 14]: 0 to 29%; pest or weed control at 70 g/ha [2, 14]: 0 to 29%; pest or weed control at 140 g/ha [2, 14]: 0 to 29%
4 | Nc1c(F)c(-c2ccc(Br)c3c2OC(F)(F)O3)nc(C(=O)O)c1Cl [Compound 80] | 95 to 100% | 95 to 100% | 95 to 100% | 85 to 94% | 85 to 94% | 85 to 94% | 95 to 100% | 95 to 100% | 95 to 100% | 85 to 94% | 85 to 94% | 85 to 94% | 60 to 74% | 75 to 84% | 85 to 94% | 0 to 29% | 0 to 29% | 0 to 29% | 0 to 29% | 0 to 29% | pest or weed control at 140 g/ha [2, 9]: 0 to 29%; pest or weed control at 35 g/ha [2, 10]: 0 to 29%; pest or weed control at 70 g/ha [2, 10]: 0 to 29%; pest or weed control at 140 g/ha [2, 10]: 0 to 29%; pest or weed control at 35 g/ha [2, 11]: 45 to 59%; pest or weed control at 70 g/ha [2, 11]: 60 to 74%; pest or weed control at 140 g/ha [2, 11]: 60 to 74%; pest or weed control at 35 g/ha [2, 12]: 0 to 29%; pest or weed control at 70 g/ha [2, 12]: 0 to 29%; pest or weed control at 140 g/ha [2, 12]: 0 to 29%; pest or weed control at 35 g/ha [2, 13]: 0 to 29%; pest or weed control at 70 g/ha [2, 13]: 0 to 29%; pest or weed control at 140 g/ha [2, 13]: 0 to 29%; pest or weed control at 35 g/ha [2, 14]: 0 to 29%; pest or weed control at 70 g/ha [2, 14]: 0 to 29%; pest or weed control at 140 g/ha [2, 14]: 0 to 29%

From patent US9149038B2, “4-amino-6-(heterocyclic)picolinates and 6-amino-2-(heterocyclic)pyrimidine-4-carboxylates and their use as herbicides” (Dow AgroSciences LLC, priority 2013, dated 2015)
